Assay results reported in patent publication US8946225B2, “Derivatives of 2H pyridazin-3-ones, their preparation and their use as SCD-1 inhibitors” (Pierre Fabre Medicament, priority 2009, dated 2015).

How the values were obtained:
SCD-1 = target: T1, SCD-1 (Homo sapiens, UniProt O00767); test: Human enzymatic activity of SCD-1 from microsomes of HepG2 cells (conversion of [14C] stearic acid to oleic acid, HPLC); type: biochemical; conditions: microsomal fraction of HepG2 cells, 62 μM stearic acid, 20 minutes at 37° C., vs vehicle 0.1% DMSO; read-out: HSCD-1 (HEPG2) IC50
T1 construct: addition of 125 μg of microsomal fraction of HepG2 cells; host or cells: HepG2 human hepatocarcinoma cells (microsomal fraction)
T1 sequence (O00767 1-359): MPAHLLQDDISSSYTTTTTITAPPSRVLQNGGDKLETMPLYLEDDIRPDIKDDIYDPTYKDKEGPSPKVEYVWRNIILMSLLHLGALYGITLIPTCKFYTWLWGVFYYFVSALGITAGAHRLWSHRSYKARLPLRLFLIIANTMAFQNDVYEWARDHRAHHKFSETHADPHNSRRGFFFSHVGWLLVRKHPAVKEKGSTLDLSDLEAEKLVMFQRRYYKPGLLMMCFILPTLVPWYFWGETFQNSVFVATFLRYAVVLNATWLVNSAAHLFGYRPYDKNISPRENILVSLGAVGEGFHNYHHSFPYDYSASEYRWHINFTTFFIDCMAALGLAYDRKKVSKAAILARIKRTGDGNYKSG
Method: In vitro: Human enzymatic activity of SCD-1 from microsomes of HepG2 cells after treatment with the inhibitor compounds (% inhibition).
HepG2 cells of human hepatocarcinoma (ATCC, HB-8065) are cultured at confluence then trypsinated. The cell residue is solubilized in 10 mM Tris buffer (pH 7.4) sucrose (250 mM) DTT (1 mM) then the cells are lysed by sonication. The microsomes are obtained after centrifuging at 10,000 g for 20 minutes at 4° C. followed by centifrugation of the supernatant at 100,000 g for 60 minutes at 4° C. The residue is solubilized in 10 mM Tris buffer (pH 7.4) sucrose (250 mM) at 4° C. and the microsomal proteins are assayed and stored at −196° C. (liquid nitrogen).
The enzymatic reaction measures the conversion of stearic acid (C18:0 fatty acid) into oleic acid (C18:1 fatty acid) by SCD-1. The enzymatic reaction is initiated by the addition of 125 μg of microsomal fraction of HepG2 cells to tubes (total reaction volume of 500 μl) containing 62 μM stearic acid (45 μM stearic acid and 17 μM [^14C] stearic acid) in 100 mM phosphate buffer (pH 7.16) with 7.2 mM ATP, 0.54 mM CoA, 6 mM MgCl2, 0.8 mM NADH and the inhibitor compound or vehicle (0.1% DMSO). The tubes are incubated for 20 minutes at 37° C. then the enzymatic reaction is halted by the addition of KOH (12%) and saponification for 30 minutes at 80° C. After acidification (3N HCl), the fatty acids are extracted twice with ethyl ether, evaporated under nitrogen before being solubilized in methanol/dichloromethane (3:1). The reaction product (C18:1) is separated from the reaction substrate (C18:0) by HPLC (Perkin Elmer, C18 reverse phase column) coupled with an in-line radioactivity detector (FlowOne). Enzymatic activity is measured in picomoles of stearic acid converted to oleic acid per minute and per mg of protein. For each inhibitor compound, an IC50 value is determined, compared with the reference enzymatic activity (vehicle 0.1% DMSO). Sterculic acid is the reference inhibitor compound (Gomez F. E., Bauman D. E., Ntambi J. M., Fox B. G. Effects of sterculic acid on stearoyl-CoA desaturase in differentiating […] adipocytes. Biochem Biophys Res Commun. 300 316-326 (2003).

SMILES	melting point	IC50 (SCD-1)
Cn1nccc(NCC(=O)N2CCC(Oc3cc(F)cc(C(F)(F)F)c3)CC2)c1=O [Example 3, 4-{2-[4-(3-Fluoro-5-trifluoromethyl-phenoxy)-piperidin-1-yl]-2-oxo-ethylamino}-2-methyl-2H-pyridazin-3-one]	175 °C	100 to 1000 nM
Cn1nccc(NCC(=O)N2CCC(Oc3cc(C(F)(F)F)ccc3Cl)CC2)c1=O [Example 4, 4-{2-[4-(2-Chloro-5-trifluoromethyl-phenoxy)-piperidin-1-yl]-2-oxo-ethylamino}-2-methyl-2H-pyridazin-3-one]	158 °C	10 to 100 nM
Cn1nccc(NCC(=O)N2CCC(Oc3cc(F)c(F)cc3Br)CC2)c1=O [Example 5, 4-{2-[4-(2-Bromo-4,5-difluoro-phenoxy)-piperidin-1-yl]-2-oxo-ethylamino}-2-methyl-2H-pyridazin-3-one]	137 °C	30 to 100 nM
Cn1nccc(NCC(=O)N2CCC(Oc3cc(Br)ccc3Cl)CC2)c1=O [Example 6, 4-{2-[4-(5-Bromo-2-chloro-phenoxy)-piperidin-1-yl]-2-oxo-ethylamino}-2-methyl-2H-pyridazin-3-one]	160 °C	3 nM
Cn1nccc(NCC(=O)N2CCC(Oc3ccccc3Cl)CC2)c1=O [Example 7, 4-{2-[4-(2-Chloro-phenoxy)-piperidin-1-yl]-2-oxo-ethylamino}-2-methyl-2H-pyridazin-3-one]	142 °C	100 to 1000 nM
Cn1nccc(NCC(=O)N2CCC(Oc3cc(F)ccc3Cl)CC2)c1=O [Example 8, 4-{2-[4-(2-Chloro-5-fluoro-phenoxy)-piperidin-1-yl]-2-oxo-ethylamino}-2-methyl-2H-pyridazin-3-one]	159 °C	100 nM
Cn1nccc(NCC(=O)N2CCC(Oc3cc([N+](=O)[O-])ccc3Cl)CC2)c1=O [Example 9, 4-{2-[4-(2-Chloro-5-nitro-phenoxy)-piperidin-1-yl]-2-oxo-ethylamino}-2-methyl-2H-pyridazin-3-one]	162 °C	100 to 1000 nM
Cn1nccc(NCC(=O)N2CCC(Oc3ccc(Cl)c(Cl)c3)CC2)c1=O [Example 10, 4-{2-[4-(3,4-Dichloro-phenoxy)-piperidin-1-yl]-2-oxo-ethylamino}-2-methyl-2H-pyridazin-3-one]	169 °C	300 to 1000 nM
Cn1nccc(NCC(=O)N2CCC(Oc3ccc(Cl)cc3Cl)CC2)c1=O [Example 11, 4-{2-[4-(2,4-Dichloro-phenoxy)-piperidin-1-yl]-2-oxo-ethylamino}-2-methyl-2H-pyridazin-3-one]	152 °C	100 to 300 nM
Cn1nccc(NCC(=O)N2CCC(Oc3cc(Cl)ccc3Cl)CC2)c1=O [Example 12, 4-{2-[4-(2,5-Dichloro-phenoxy)-piperidin-1-yl]-2-oxo-ethylamino}-2-methyl-2H-pyridazin-3-one]	162 °C	30 to 100 nM
Cc1ccc(F)cc1OC1CCN(C(=O)CNc2ccnn(C)c2=O)CC1 [Example 14, 4-{2-[4-(5-Fluoro-2-methyl-phenoxy)-piperidin-1-yl]-2-oxo-ethylamino}-2-methyl-2H-pyridazin-3-one]	176 °C	100 to 1000 nM
Cc1ccc(C(C)C)cc1OC1CCN(C(=O)CNc2ccnn(C)c2=O)CC1 [Example 16, 4-{2-[4-(5-Isopropyl-2-methyl-phenoxy)-piperidin-1-yl]-2-oxo-ethylamino}-2-methyl-2H-pyridazin-3-one]	159 °C	30 to 100 nM
Cn1ncc(OCC(=O)N2CCC(Oc3cc(C(F)(F)F)ccc3Cl)CC2)cc1=O [Example 24, 5-{2-[4-(2-Chloro-5-trifluoromethyl-phenoxy)-piperidin-1-yl]-2-oxo-ethoxy}-2-methyl-2H-pyridazin-3-one]	176 °C	1000 to 3000 nM
Cn1ncc(OCC(=O)N2CCC(Oc3cc(Cl)ccc3Cl)CC2)cc1=O [Example 25, 5-{2-[4-(2,5-Dichloro-phenoxy)-piperidin-1-yl]-2-oxo-ethoxy}-2-methyl-2H-pyridazin-3-one]	163 °C	1000 to 10000 nM
Cn1nccc(NCC(=O)N2CC(Oc3ccccc3C(F)(F)F)C2)c1=O [Example 27, 2-Methyl-4-{2-oxo-2-[3-(2-trifluoromethyl-phenoxy)-azetidin-1-yl]-ethylamino}-2H-pyridazin-3-one]	122 °C	3000 to 10000 nM

The remaining lines, values ahead:

melting point	IC50 (SCD-1)	SMILES
182 °C	~300 nM	Cn1nccc(NCC(=O)N2CCC(CNc3ccccc3C(F)(F)F)CC2)c1=O [Example 31, 2-Methyl-4-(2-oxo-2-{4-[(2-trifluoromethyl-phenylamino)-methyl]-piperidin-1-yl}-ethylamino)-2H-pyridazin-3-one]
64 °C	300 to 1000 nM	Cn1nccc(NCC(=O)N2CCC(CNc3cc(C(F)(F)F)ccc3Cl)CC2)c1=O [Example 32, 4-(2-{4-[(2-Chloro-5-trifluoromethyl-phenylamino)-methyl]-piperidin-1-yl}-2-oxo-ethylamino)-2-methyl-2H-pyridazin-3-one]
183 °C	30 to 100 nM	Cn1nccc(NCC(=O)N2CCC(COc3cc(C(F)(F)F)ccc3Cl)C2)c1=O (centres unmarked) [Example 34, 4-{2-[3-(2-Chloro-5-trifluoromethyl-phenoxymethyl)-pyrrolidin-1-yl]-2-oxo-ethylamino}-2-methyl-2H-pyridazin-3-one]
205 °C	100 to 1000 nM	Cn1nccc(NC(=O)C(=O)N2CCC(Oc3cc(C(F)(F)F)ccc3Cl)CC2)c1=O [Example 35, 2-[4-(2-Chloro-5-trifluoromethyl-phenoxy)-piperidin-1-yl]-N-(2-methyl-3-oxo-2,3-dihydro-pyridazin-4-yl)-2-oxo-acetamide]
154 °C	300 to 1000 nM	Cn1nccc(/C=C/C(=O)N2CCC(Oc3cc(C(F)(F)F)ccc3Cl)CC2)c1=O [Example 36, 4-{(E)-3-[4-(2-Chloro-5-trifluoromethyl-phenoxy)-piperidin-1-yl]-3-oxo-propenyl}-2-methyl-2H-pyridazin-3-one]
222 °C	10 to 100 nM	O=C(CNc1ccn[nH]c1=O)N1CCC(Oc2cc(C(F)(F)F)ccc2Cl)CC1 [Example 40, 4-{2-[4-(2-Chloro-5-trifluoromethyl-phenoxy)-piperidin-1-yl]-2-oxo-ethylamino}-2H-pyridazin-3-one]
60 °C	100 to 1000 nM	COc1cnn(C)c(=O)c1NCC(=O)N1CCC(Oc2cc(C(F)(F)F)ccc2Cl)CC1 [Example 51, 4-{2-[4-(2-Chloro-5-trifluoromethyl-phenoxy)-piperidin-1-yl]-2-oxo-ethylamino}-5-methoxy-2-methyl-2H-pyridazin-3-one]
148 °C	30 to 100 nM	Cn1nccc(NC(=O)N2CCC(Oc3cc(C(F)(F)F)ccc3Cl)CC2)c1=O [Example 52, 4-(2-Chloro-5-trifluoromethyl-phenoxy)-piperidine-1-carboxylic acid (2-methyl-3-oxo-2,3-dihydro-pyridazin-4-yl)-amide]
116 °C	30 to 100 nM	Cn1nccc(NC(=O)N2CCC(Oc3cc(F)ccc3Cl)CC2)c1=O [Example 53, 4-(2-Chloro-5-fluoro-phenoxy)-piperidine-1-carboxylic acid (2-methyl-3-oxo-2,3-dihydro-pyridazin-4-yl)-amide]
102 °C	30 to 100 nM	Cn1nccc(NC(=O)N2CCC(Oc3cc(C(F)(F)F)ccc3F)CC2)c1=O [Example 54, 4-(2-fluoro-5-trifluoromethyl-phenoxy)-piperidine-1-carboxylic acid (2-methyl-3-oxo-2,3-dihydro-pyridazin-4-yl)-amide]
